# Test results taken from publication PMC8800111 (The Journal of Biological Chemistry, 2021).
# Experiments:
# Type in all cases: cell-based
# [1] = biological target: proteins of U3A human fibrosarcoma cells (4462 proteins detected) (Homo sapiens, UniProt Q9C0C9); conditions: protein UBE2O; soluble abundance after heat, U3A cells
# [2] = biological target: proteins of U3A human fibrosarcoma cells (4462 proteins detected) (Homo sapiens, UniProt P68366); conditions: protein TUBA4A; U3A cells
# [3] = biological target: proteins of U3A human fibrosarcoma cells (4462 proteins detected) (Homo sapiens, UniProt Q9H4A6); conditions: protein GOLPH3; U3A cells
# [4] = biological target: proteins of U3A human fibrosarcoma cells (4462 proteins detected) (Homo sapiens, UniProt Q9UK53); conditions: protein ING1; U3A, 10 μM, 2 h
# [5] = biological target: proteins of U3A human fibrosarcoma cells (4462 proteins detected) (Homo sapiens, UniProt Q8IVD9); conditions: protein NUDCD3; soluble abundance after heat, U3A cells
# [6] = biological target: proteins of U3A human fibrosarcoma cells (4462 proteins detected) (Homo sapiens, UniProt Q9NSA3); conditions: protein CTNNBIP1; U3A, 10 μM, 2 h
# Chain of proteins of U3A human fibrosarcoma cells (4462 proteins detected) (Homo sapiens, UniProt Q9NSA3) (Q9NSA3 whole entry): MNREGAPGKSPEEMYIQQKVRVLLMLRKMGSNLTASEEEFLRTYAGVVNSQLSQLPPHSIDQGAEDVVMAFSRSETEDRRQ
# [7] = biological target: proteins of U3A human fibrosarcoma cells (4462 proteins detected) (Homo sapiens, UniProt A0MZ66); conditions: protein KIAA1598; U3A, 10 μM, 2 h
# Chain of proteins of U3A human fibrosarcoma cells (4462 proteins detected) (Homo sapiens, UniProt A0MZ66) (A0MZ66 whole entry): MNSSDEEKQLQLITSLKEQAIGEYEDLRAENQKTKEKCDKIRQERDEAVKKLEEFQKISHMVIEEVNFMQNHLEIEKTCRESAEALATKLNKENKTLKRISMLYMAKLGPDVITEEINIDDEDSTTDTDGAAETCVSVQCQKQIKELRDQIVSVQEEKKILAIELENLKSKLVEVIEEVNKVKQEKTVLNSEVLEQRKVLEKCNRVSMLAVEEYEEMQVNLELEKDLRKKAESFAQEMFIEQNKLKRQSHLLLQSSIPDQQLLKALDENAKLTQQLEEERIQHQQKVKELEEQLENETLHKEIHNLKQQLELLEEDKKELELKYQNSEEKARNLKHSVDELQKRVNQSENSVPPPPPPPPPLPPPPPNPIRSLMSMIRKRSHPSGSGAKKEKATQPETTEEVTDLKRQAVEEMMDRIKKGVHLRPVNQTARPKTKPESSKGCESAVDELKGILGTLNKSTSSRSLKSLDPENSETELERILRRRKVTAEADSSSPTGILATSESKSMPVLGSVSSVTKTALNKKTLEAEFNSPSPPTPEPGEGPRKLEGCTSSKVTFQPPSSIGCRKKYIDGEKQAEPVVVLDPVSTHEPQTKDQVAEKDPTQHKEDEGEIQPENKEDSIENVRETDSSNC
# [8] = biological target: proteins of U3A human fibrosarcoma cells (4462 proteins detected) (Homo sapiens, UniProt Q9Y6A4); conditions: protein CFAP20; soluble abundance after heat, U3A cells
# [9] = biological target: proteins of U3A human fibrosarcoma cells (4462 proteins detected) (Homo sapiens, UniProt O00330); conditions: protein PDHX; U3A cells
# Chain of proteins of U3A human fibrosarcoma cells (4462 proteins detected) (Homo sapiens, UniProt O00330) (O00330 54-501): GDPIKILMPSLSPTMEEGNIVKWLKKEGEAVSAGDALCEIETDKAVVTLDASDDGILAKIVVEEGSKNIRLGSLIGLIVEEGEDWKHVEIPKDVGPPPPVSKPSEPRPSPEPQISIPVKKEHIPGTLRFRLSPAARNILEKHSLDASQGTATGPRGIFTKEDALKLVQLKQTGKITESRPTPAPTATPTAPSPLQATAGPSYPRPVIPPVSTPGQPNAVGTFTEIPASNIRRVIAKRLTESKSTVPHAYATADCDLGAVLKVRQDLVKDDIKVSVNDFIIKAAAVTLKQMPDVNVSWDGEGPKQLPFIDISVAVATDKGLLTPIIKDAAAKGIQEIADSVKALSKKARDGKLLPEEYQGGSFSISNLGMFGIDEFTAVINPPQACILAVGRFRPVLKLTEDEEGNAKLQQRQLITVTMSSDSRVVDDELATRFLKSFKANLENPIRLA
# [10] = biological target: proteins of U3A human fibrosarcoma cells (4462 proteins detected) (Homo sapiens, UniProt Q9NP64); conditions: protein ZCCHC17; soluble abundance after heat, U3A cells
# [11] = biological target: proteins of U3A human fibrosarcoma cells (4462 proteins detected) (Homo sapiens, UniProt Q15599); conditions: protein SLC9A3R2, U3A cells
# Chain of proteins of U3A human fibrosarcoma cells (4462 proteins detected) (Homo sapiens, UniProt Q15599) (Q15599 whole entry): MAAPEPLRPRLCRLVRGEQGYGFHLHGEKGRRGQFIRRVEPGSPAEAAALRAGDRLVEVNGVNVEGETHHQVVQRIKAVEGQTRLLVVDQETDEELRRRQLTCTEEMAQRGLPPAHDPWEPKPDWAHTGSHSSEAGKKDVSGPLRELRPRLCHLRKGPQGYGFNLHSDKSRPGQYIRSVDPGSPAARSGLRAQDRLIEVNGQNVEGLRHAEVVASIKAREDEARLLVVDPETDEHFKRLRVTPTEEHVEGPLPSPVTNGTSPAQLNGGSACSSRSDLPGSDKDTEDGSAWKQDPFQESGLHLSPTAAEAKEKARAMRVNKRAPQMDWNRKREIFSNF
# [12] = biological target: proteins of U3A human fibrosarcoma cells (4462 proteins detected) (Homo sapiens, UniProt Q6P3W7); conditions: protein SCYL2, U3A cells
# [13] = biological target: proteins of U3A human fibrosarcoma cells (4462 proteins detected) (Homo sapiens, UniProt Q92575); conditions: protein UBXN4; U3A cells
# Chain of proteins of U3A human fibrosarcoma cells (4462 proteins detected) (Homo sapiens, UniProt Q92575) (Q92575 whole entry): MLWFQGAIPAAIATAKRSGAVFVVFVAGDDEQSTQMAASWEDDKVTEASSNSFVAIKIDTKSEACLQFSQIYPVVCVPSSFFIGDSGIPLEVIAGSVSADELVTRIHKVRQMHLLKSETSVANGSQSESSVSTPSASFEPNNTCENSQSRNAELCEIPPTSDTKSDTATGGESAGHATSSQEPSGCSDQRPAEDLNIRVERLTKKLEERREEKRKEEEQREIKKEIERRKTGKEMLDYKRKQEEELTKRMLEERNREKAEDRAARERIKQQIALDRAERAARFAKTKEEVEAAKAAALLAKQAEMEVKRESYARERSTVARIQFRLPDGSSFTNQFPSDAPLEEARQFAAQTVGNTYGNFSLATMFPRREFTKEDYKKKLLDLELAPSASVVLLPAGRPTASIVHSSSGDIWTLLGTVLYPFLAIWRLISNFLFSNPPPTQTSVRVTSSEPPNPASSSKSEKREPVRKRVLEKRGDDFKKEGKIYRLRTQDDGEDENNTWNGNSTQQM
# [14] = biological target: proteins of U3A human fibrosarcoma cells (4462 proteins detected) (Homo sapiens, UniProt Q9NYV4); conditions: protein CDK12; U3A cells
# [15] = biological target: proteins of U3A human fibrosarcoma cells (4462 proteins detected) (Homo sapiens, UniProt Q99832); conditions: protein CCT7; U3A cells
# [16] = biological target: proteins of U3A human fibrosarcoma cells (4462 proteins detected) (Homo sapiens, UniProt Q9HCN4); conditions: protein GPN1; soluble abundance after heat, U3A cells
# [17] = biological target: proteins of U3A human fibrosarcoma cells (4462 proteins detected) (Homo sapiens, UniProt O75886); conditions: protein STAM2; U3A cells
# [18] = biological target: proteins of U3A human fibrosarcoma cells (4462 proteins detected) (Homo sapiens, UniProt P35232); conditions: protein PHB; U3A cells
# Chain of proteins of U3A human fibrosarcoma cells (4462 proteins detected) (Homo sapiens, UniProt P35232) (P35232 whole entry): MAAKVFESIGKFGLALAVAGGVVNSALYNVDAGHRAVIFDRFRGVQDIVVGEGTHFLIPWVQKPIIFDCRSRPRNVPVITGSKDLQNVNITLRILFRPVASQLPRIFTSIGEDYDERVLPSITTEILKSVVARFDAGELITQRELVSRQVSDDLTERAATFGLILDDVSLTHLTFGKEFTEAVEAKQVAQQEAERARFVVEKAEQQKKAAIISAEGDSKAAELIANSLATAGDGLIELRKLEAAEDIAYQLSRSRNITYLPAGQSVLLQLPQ
# [19] = biological target: proteins of U3A human fibrosarcoma cells (4462 proteins detected) (Homo sapiens, UniProt Q96PK6); conditions: protein RBM14; soluble abundance after heat, U3A cells
# [20] = biological target: proteins of U3A human fibrosarcoma cells (4462 proteins detected) (Homo sapiens, UniProt Q9NTW7); conditions: protein ZFP64, U3A cells
# [21] = biological target: proteins of U3A human fibrosarcoma cells (4462 proteins detected) (Homo sapiens, UniProt Q9Y3D3); conditions: protein MRPS16; U3A, 10 μM, 2 h
# [22] = biological target: proteins of U3A human fibrosarcoma cells (4462 proteins detected) (Homo sapiens, UniProt Q15084); conditions: protein PDIA6; U3A cells
# Chain of proteins of U3A human fibrosarcoma cells (4462 proteins detected) (Homo sapiens, UniProt Q15084) (Q15084 20-440): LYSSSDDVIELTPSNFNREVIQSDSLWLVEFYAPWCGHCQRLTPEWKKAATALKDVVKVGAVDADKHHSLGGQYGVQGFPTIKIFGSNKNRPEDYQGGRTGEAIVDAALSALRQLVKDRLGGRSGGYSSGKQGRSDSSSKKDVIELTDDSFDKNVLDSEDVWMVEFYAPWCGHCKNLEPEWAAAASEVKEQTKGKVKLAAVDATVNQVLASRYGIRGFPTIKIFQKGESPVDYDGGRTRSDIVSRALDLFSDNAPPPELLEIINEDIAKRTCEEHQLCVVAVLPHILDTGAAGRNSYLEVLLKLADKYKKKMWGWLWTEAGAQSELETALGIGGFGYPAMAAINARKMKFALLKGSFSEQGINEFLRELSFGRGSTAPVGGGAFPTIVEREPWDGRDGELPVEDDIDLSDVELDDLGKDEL
# [23] = biological target: proteins of U3A human fibrosarcoma cells (4462 proteins detected) (Homo sapiens, UniProt Q9UBQ5); conditions: protein EIF3K; U3A cells
# Chain of proteins of U3A human fibrosarcoma cells (4462 proteins detected) (Homo sapiens, UniProt Q9UBQ5) (Q9UBQ5 whole entry): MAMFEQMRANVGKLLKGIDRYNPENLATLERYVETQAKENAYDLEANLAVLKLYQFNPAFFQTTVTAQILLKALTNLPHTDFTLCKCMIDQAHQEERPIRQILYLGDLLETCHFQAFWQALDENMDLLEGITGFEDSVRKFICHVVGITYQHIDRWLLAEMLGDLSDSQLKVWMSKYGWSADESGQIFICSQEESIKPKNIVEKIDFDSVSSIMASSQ
# [24] = biological target: proteins of U3A human fibrosarcoma cells (4462 proteins detected) (Homo sapiens, UniProt Q9BZZ5); conditions: protein API5; U3A cells
# Chain of proteins of U3A human fibrosarcoma cells (4462 proteins detected) (Homo sapiens, UniProt Q9BZZ5) (Q9BZZ5 whole entry): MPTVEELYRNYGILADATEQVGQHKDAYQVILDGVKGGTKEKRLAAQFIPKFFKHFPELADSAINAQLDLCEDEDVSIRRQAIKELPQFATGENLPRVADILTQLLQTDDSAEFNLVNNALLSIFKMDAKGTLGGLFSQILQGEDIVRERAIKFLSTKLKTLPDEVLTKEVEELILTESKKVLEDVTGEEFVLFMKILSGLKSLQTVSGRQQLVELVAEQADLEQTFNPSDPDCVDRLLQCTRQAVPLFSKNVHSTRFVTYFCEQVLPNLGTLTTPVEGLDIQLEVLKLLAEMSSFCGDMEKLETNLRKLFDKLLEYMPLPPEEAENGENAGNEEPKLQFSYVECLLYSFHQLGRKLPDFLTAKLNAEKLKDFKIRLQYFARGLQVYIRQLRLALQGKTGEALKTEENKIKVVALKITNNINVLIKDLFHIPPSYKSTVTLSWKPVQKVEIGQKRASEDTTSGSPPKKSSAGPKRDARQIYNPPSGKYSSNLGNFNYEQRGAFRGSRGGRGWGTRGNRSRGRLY
# [25] = biological target: proteins of U3A human fibrosarcoma cells (4462 proteins detected) (Homo sapiens, UniProt Q96SB8); conditions: protein SMC6; U3A cells
# [26] = biological target: proteins of U3A human fibrosarcoma cells (4462 proteins detected) (Homo sapiens, UniProt P57105); conditions: protein SYNJ2BP-COX16; SYNJ2BP, U3A cells
# [27] = biological target: proteins of U3A human fibrosarcoma cells (4462 proteins detected) (Homo sapiens, UniProt Q14657); conditions: protein LAGE3; soluble abundance after heat, U3A cells
# Chain of proteins of U3A human fibrosarcoma cells (4462 proteins detected) (Homo sapiens, UniProt Q14657) (Q14657 whole entry): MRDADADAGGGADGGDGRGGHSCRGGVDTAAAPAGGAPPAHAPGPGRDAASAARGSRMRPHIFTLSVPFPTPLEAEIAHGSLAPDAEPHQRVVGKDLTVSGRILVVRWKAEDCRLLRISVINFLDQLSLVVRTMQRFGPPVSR
# [28] = biological target: proteins of U3A human fibrosarcoma cells (4462 proteins detected) (Homo sapiens, UniProt P23469); conditions: protein PTPRE; soluble abundance after heat, U3A cells
# [29] = biological target: proteins of U3A human fibrosarcoma cells (4462 proteins detected) (Homo sapiens, UniProt Q8IXK0); conditions: protein PHC2; U3A cells
# Chain of proteins of U3A human fibrosarcoma cells (4462 proteins detected) (Homo sapiens, UniProt Q9C0C9) (Q9C0C9 whole entry): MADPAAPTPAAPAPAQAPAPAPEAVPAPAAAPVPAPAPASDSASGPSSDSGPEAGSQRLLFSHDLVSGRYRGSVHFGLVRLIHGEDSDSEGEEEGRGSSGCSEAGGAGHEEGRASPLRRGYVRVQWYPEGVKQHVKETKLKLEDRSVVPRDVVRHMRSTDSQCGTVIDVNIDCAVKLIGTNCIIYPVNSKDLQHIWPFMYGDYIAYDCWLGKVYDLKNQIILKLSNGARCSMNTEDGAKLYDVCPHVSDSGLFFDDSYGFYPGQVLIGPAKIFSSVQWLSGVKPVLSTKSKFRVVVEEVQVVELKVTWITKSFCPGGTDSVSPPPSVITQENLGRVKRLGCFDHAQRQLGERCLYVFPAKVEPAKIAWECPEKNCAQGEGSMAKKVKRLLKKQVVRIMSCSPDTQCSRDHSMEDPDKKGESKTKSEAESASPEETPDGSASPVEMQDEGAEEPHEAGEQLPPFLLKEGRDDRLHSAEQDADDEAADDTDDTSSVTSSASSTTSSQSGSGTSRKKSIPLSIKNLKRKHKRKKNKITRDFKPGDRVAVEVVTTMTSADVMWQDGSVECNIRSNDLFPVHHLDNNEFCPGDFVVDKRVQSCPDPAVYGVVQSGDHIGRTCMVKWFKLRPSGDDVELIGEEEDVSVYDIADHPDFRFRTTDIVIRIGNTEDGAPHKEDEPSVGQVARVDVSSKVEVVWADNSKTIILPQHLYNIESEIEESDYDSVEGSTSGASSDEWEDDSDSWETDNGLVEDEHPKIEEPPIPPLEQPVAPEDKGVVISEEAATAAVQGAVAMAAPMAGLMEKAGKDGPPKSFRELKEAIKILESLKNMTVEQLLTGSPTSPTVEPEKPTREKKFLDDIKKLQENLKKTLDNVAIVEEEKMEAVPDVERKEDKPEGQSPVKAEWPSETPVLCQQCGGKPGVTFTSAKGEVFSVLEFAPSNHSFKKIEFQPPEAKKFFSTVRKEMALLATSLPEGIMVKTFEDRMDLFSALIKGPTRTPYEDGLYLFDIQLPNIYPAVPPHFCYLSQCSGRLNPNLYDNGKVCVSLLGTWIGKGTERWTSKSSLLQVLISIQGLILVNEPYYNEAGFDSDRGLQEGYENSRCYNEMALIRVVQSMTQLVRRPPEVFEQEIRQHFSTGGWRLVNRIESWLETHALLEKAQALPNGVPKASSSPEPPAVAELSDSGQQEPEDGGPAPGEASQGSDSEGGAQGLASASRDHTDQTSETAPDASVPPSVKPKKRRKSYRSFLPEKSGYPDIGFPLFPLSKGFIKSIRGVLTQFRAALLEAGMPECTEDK
compound,measurement,setting,value
CCc1nc(N)nc(N)c1-c1ccc(Cl)cc1 [pyrimethamine],Log2 (PYR/DMSO),[1],0.14
same,Log2 (PYR/DMSO),[2],0.17
same,Log2 (PYR/DMSO),[3],0.23
same,"Log2 (PYR/DMSO), ING1",[4],-0.22
same,Log2 (PYR/DMSO),[5],0.15
same,"Log2 (PYR/DMSO), CTNNBIP1",[6],-0.15
same,"Log2 (PYR/DMSO), KIAA1598",[7],-0.28
same,Log2 (PYR/DMSO),[8],0.14
same,Log2 (PYR/DMSO),[9],0.19
same,Log2 (PYR/DMSO),[10],0.15
same,Log2 (PYR/DMSO),[11],-0.05
same,Log2 (PYR/DMSO),[12],-0.04
same,Log2 (PYR/DMSO),[13],0.18
same,Log2 (PYR/DMSO),[14],0.20
same,Log2 (PYR/DMSO),[15],0.18
same,Log2 (PYR/DMSO),[16],0.15
same,Log2 (PYR/DMSO),[17],0.19
same,Log2 (PYR/DMSO),[18],0.16
same,Log2 (PYR/DMSO),[19],0.14
same,Log2 (PYR/DMSO),[20],-0.04
same,"Log2 (PYR/DMSO), MRPS16",[21],0.24
same,Log2 (PYR/DMSO),[22],0.16
same,Log2 (PYR/DMSO),[23],0.20
same,Log2 (PYR/DMSO),[24],0.24
same,Log2 (PYR/DMSO),[25],0.18
same,Log2 (PYR/DMSO),[26],-0.03
same,Log2 (PYR/DMSO),[27],0.14
same,Log2 (PYR/DMSO),[28],0.13
same,Log2 (PYR/DMSO),[29],0.16
